Results on three compounds are retold here after patent publication US6969760B2, “Jak kinases and regulation of cytokine signal transduction” (St. Jude Children's Research Hospital, priority 1993, dated 2005).

The target of assay [1] is T1, Jak2 (Mus musculus, UniProt Q62120).
T1 construct: endogenous in cells; host or cells: mammalian cells stimulated with EPO or IL-3
Nature of the assay: In vitro kinase assay with Jak2 immunoprecipitated from cell lysates (32P-gamma-ATP, autoradiography). The class given is biochemical. As to conditions: genestein at 0.1 mM in the in vitro kinase assay. As for the experimental part: In this assay, purified Jak2 is precipitated from cell lysates using Jak2-specific antisera bound to protein A-sepharose. The immunoprecipitated Jak2 is then washed with kinase buffer (50 mM NaCl, 5 mM MgCl2, 5 mM MnCl2, 0.1 mM Na3VO4, 10 mM HEPES pH 7.4) and subsequently incubated for 30 minutes at room temperature with an equal volume of kinase buffer containing 0.25 mCi/ml ^32P-gamma-ATP. After extensive washing, proteins are eluted with sample buffer for SDS-PAGE and separated on 7% gels. ^32P-containing proteins are then visualized by autoradiography.
Thus, activation of the Jak2 catalytic activity is correlated with the biological activities of these cytokines.

For assay [2], the system named is EPO-induced cell proliferation. To be noted: cited from earlier work.
Assay [3] deals with tyrosine kinase activity associated with the CNTF receptor complex (gp130, LIFRβ). Put plainly: In vitro tyrosine kinase activity associated with the purified CNTF receptor complex. The class given is biochemical. As to conditions: compared with CNTF-treated intact cells.
Procedure: Cell lines were passaged and maintained as previously described (Ip et al., Cell 69:1121-1132 (1992). COS cell transfections were carried out by a DEAE protocol (Davis et al., Science 260:1805-1808 (1993)). Plates of cells were starved in serum-free RPMI medium for 2-4 hours, then stimulated with 50 ng/ml of the indicated factor for 5 minutes. Cells were harvested and lysed as previously described (Stahl et al., J. Biol. Chem. 268:7628-7631 (1993)), except that 1% Brij 96 (Sigma) or 1% NP-40 (Boehringer) was used as indicated. Immunoprecipitation, electrophoresis, and anti-phosphotyrosine immunoblotting with monoclonal antibody 4G10 (Upstate Biotechnology) and detection via enhanced chemiluminescence (Amersham) was carried out as previously described (Id). For in vitro kinase assays, the washed beads were incubated for 15 min at room temperature in 20 mM Hepes (pH 7.2), 10 mM MnCl2, 30 mM sodium orthovanadate and 10 MCi of (g-^32P)ATP (NEN DUPONT). Electrophoresis sample buffer was added and the samples were boiled, subjected to SDS PAGE, and electroblotted to PVDF. The membrane was then incubated in 1 M NaOH at 65° C. for 60 min to destroy serine and threonine phosphate before autoradiography.
Assay [4] deals with Jak2. Nature of the assay: GH-dependent tyrosyl phosphorylation of Jak2 (αJak2 immunoprecipitation, αPY immunoblot) in 3T3-F442A fibroblasts. Type of assay: cell-based. As to the method:
Jak2 is a tyrosine kinase of the correct size (Mr of ˜130,000; see example 1) to be the GHR-associated kinase and was therefore tested for its ability to be phosphorylated in response to GH. Solubilized proteins from GH-treated 3T3-F442A fibroblasts were immunoprecipitated using antiserum to Jak2 (αJak2) and analyzed by anti-phosphotyrosine antibody (αPY) immunoblot. Cells were incubated with varying physiological concentrations of GH in ranging in 10-fold increments from 0.5 ng/ml to 500 ng/ml (the standard concentration used) for 0, 0.5, 5, 50, and 60 minutes.
Cells were grown to confluence and deprived of serum overnight as described previously (Wang, X. et al., J. Biol. Chem. 268:3573-3579 (1993)). Cells were incubated for the indicated times with hormone or growth factor as indicated at 37° C. in 95% air, 5% CO2, rinsed with three changes of ice-cold 10 mM sodium phosphate (pH 7.4), 137 mM NaCl, 1 mM Na3VO4, and scraped in lysis buffer (50 mM Tris (pH 7.5), 0.1% Triton X-100, 137 mM NaCl, 2 mM EGTA, 1 mM Na3VO4, 1 mM phenylmethylsulfonyl fluoride, 10 μg/ml aprotinin, and 10 μg/ml leupeptin) on ice. Cell lysates were centrifuged at 12,000×g for 10 min, and the resulting supernatants were incubated on ice 90 min with the indicated antibody. […]
(A western blot detects proteins with antibodies after separation by electrophoresis.)

Values joined by “and” are separate entries in the source; they are usually repeats but may differ in a detail not shown here. Equal values may be shown once.

T1 sequence (Q62120 whole entry): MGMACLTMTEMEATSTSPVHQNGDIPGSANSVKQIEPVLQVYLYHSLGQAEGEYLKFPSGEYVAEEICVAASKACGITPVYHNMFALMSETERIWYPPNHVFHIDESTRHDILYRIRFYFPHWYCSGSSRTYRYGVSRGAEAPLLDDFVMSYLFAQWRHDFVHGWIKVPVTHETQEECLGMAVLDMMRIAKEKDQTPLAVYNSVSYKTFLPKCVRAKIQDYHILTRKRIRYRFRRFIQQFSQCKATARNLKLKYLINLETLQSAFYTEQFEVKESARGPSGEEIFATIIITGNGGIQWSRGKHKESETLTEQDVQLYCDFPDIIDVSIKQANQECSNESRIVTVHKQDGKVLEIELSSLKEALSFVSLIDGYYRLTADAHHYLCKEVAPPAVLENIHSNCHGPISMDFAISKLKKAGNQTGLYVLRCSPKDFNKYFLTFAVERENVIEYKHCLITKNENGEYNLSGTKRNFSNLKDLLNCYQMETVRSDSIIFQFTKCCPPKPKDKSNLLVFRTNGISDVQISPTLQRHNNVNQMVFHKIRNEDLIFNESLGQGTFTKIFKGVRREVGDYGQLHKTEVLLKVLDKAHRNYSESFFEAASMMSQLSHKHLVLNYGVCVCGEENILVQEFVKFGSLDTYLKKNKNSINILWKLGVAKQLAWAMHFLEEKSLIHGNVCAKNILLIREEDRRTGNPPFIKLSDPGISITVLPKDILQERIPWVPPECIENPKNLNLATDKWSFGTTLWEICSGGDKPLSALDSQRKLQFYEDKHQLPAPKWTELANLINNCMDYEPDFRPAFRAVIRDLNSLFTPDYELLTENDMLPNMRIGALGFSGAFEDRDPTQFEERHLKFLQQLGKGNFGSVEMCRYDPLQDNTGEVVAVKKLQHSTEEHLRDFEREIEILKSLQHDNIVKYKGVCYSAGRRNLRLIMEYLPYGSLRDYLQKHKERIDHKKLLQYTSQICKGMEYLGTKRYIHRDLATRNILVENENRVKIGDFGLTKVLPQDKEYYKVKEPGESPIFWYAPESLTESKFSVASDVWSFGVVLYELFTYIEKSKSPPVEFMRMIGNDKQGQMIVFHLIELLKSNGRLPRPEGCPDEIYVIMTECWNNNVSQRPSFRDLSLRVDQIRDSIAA

Consider `O=c1c(-c2ccc(O)cc2)coc2cc(O)cc(O)c12` [genestein], for which the “reduction in the tyrosine kinase activity of Jak2” value at Jak2 [1] stood at 2 fold. The “effect on ability of EPO to stimulate cell growth” value in assay [2] is “inhibit the ability of EPO to stimulate cell growth”.
On to `CN[C@@H]1C[C@H]2O[C@@](C)([C@@H]1OC)n1c3ccccc3c3c4c(c5c6ccccc6n2c5c31)C(=O)NC4` [staurosporine], for which the “sensitivity of receptor-associated in vitro kinase activity to staurosporine” value in assay [3] is given as “same sensitivity to staurosporine as that observed upon addition of CNTF to intact cells”.
As for “GH: Recombinant human GH (hGH) provided by Eli Lilly”, in the assay with Jak2 [4], the “earliest time at which GH-dependent tyrosyl phosphorylation of Jak2 was clearly evident” value came to 30 s; the “lowest GH concentration at which tyrosyl phosphorylation of Jak2 was clearly evident” value was 5.0 ng/ml and 230 pM.
